Experimental findings from ChEMBL document CHEMBL3217702, “Oxadiazole isomers: all bioisosteres are not created equal” (Medchemcomm, 2012) are described below.

Data set [1] can be described thus: Hydrolytic stability of the compound at 10 uM at pH 6 at 65 degC after 18 hrs in presence of 2-methoxyethanol. The class given is physicochemical. The following applies: buffer, pH 6, 18 h.
The nature of data set [2]: Intrinsic clearance in human microsomes. The class given is ADME, Microsome.
Data set [3] in a line: Hydrolytic stability of the compound at 10 uM at pH 8 at 65 degC after 18 hrs in presence of 2-methoxyethanol. The class given is physicochemical. The following applies: buffer, pH 8, 18 h.
Data set [4] can be described thus: Hexadecane-phosphate buffer distribution coefficient, log P of the compound at pH 7.4. It is filed as physicochemical.
Data set [5] can be described thus: Permeability from basolateral to apical side in human Caco2 cells. The class given is ADME, cell-based. The following applies: Caco-2, read-out: permeability.
A short description of data set [6]: Hydrolytic stability of the compound at 10 uM at pH 4 at 65 degC after 18 hrs in presence of 2-methoxyethanol. The class given is physicochemical. The following applies: buffer, pH 4, 18 h.
Data set [7] is described as follows: Intrinsic clearance in rat hepatocytes measured per 10^6 cells. The class given is ADME, cell-based, Hepatocyte. The conditions noted are these: read-out: CLH.
A short description of data set [8]: Permeability from apical to basolateral side in human Caco2 cells. It is filed as ADME, cell-based. The following applies: Caco-2, read-out: permeability.
Data set [9] in a line: Half life at 10 uM at pH 4 at 25 degC. The conditions noted are these: buffer. The class given is physicochemical.
Data set [10] can be described thus: Half life at 10 uM at pH 4 at 65 degC. It is filed as physicochemical. The following applies: buffer.
Data set [11] can be described thus: Half life at 10 uM at pH 8 at 25 degC. It is filed as physicochemical. The following applies: buffer.
The nature of data set [12]: Half life at 10 uM at pH 6 at 25 degC. The following applies: buffer. It is filed as physicochemical.
Data set [13] can be described thus: Half life at 10 uM at pH 6 at 65 degC. The class given is physicochemical. The conditions noted are these: buffer.
The nature of data set [14]: Half life at 10 uM at pH 8 at 65 degC. The class given is physicochemical. The conditions noted are these: buffer.
Data set [15] is described as follows: physchem. The following applies: octanol/aqueous phosphate buffer, pH 7.4.
Description: Octanol-aqueous phosphate buffer distribution coefficient, log P of the compound at pH 7.4
Data set [16] can be described thus: Fraction unbound in rat plasma. It is filed as ADME, cell-free.
A short description of data set [17]: Fraction unbound in human plasma. The class given is ADME, cell-free.
The target of data set [18] is Voltage-gated inwardly rectifying potassium channel KCNH2 (Homo sapiens, UniProt Q12809). Nature of the data set: Inhibition of human ERG.
Sequence of Voltage-gated inwardly rectifying potassium channel KCNH2 (Q12809 whole entry): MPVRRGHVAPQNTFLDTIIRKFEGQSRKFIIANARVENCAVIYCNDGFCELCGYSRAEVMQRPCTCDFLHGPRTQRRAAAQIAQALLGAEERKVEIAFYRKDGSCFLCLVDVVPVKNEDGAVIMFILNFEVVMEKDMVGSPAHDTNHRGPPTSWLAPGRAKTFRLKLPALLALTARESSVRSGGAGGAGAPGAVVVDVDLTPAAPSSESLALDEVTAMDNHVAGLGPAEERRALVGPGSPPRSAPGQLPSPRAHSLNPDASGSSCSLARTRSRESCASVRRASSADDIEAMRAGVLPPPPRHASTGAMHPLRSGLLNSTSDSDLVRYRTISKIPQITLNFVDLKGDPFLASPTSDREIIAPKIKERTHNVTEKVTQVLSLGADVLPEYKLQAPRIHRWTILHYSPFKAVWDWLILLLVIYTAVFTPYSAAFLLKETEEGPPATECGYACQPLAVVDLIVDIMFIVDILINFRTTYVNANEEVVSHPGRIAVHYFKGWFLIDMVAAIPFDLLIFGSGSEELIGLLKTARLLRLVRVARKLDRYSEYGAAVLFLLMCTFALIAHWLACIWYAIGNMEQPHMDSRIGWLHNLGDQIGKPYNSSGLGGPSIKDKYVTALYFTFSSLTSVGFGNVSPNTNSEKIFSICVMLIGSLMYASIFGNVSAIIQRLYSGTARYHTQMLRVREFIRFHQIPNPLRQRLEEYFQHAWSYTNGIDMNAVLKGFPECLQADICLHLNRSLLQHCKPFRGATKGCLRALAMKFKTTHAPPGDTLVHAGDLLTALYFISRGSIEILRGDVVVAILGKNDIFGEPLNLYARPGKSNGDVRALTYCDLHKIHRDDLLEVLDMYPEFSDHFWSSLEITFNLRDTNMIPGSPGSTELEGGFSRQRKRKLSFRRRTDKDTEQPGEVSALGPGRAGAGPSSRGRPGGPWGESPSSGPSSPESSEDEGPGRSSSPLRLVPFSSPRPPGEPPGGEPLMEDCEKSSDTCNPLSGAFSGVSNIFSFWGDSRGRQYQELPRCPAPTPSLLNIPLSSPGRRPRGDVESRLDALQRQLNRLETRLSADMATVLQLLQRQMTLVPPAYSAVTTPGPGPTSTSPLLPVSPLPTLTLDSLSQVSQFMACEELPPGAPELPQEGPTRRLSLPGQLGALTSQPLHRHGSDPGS
Data set [19] in a line: Fraction unbound in mouse plasma. It is filed as ADME, cell-free.
Data set [20] can be described thus: physchem. The following applies: aqueous phosphate buffer, pH 7.4.
Description: Solubility of the compound in aqueous phosphate buffer at pH 7.4 at 25 degC after 24 hrs

Each structure is given as a SMILES string. In brackets after ≈: the same amount, converted by molar mass.

On to `CC(C)c1nc(N2CCN(c3ncc(OCc4ccncc4C#N)cn3)[C@H](C)C2)no1`, for which the Stability result in data set [1], in data set [3] and in [6] was “Stable” in each case. Further, the microsomal CLint in [2] is 48 µL/min/mg. Also, in data set [4], the logP was found to be 1.3. For the same compound, the Papp B→A in data set [5] was found to be 6 ×10⁻⁶ cm/s. Moreover, the hepatocyte CLint in [7] stood at 70 µL/min/1e6 cells. Also, the Papp A→B in [8] is 15 ×10⁻⁶ cm/s.

As for `C[C@@H]1CN(c2noc(C(F)(F)F)n2)CCN1c1ncc(OCc2ccncc2C#N)cn1`, the Stability result in data set [1], in [3] and in data set [6] was “Unstable” throughout. The same compound yielded a microsomal CLint in [2] of 28 µL/min/mg. In addition, the half-life at 10 µM in data set [9] is 137 h; in data set [10], 6.96 h; in data set [11], 127 h; in [12] it was 214 h; in data set [13], 8.64 h; in data set [14], 2.88 h. In data set [4], this compound displayed a logP of 2.9. For the same compound, the Papp B→A in [5] worked out at 6 ×10⁻⁶ cm/s. Also, the hepatocyte CLint in data set [7] came out at 42 µL/min/1e6 cells. In data set [8], the Papp A→B is 23 ×10⁻⁶ cm/s.

`C[C@@H]1CN(c2noc(C(F)F)n2)CCN1c1ncc(OCc2ccncc2C#N)cn1` returned a logD in the data set “physchem [15]” of 2.8. The Stability entry in data set [1], in [3] and in data set [6] was “Stable” throughout. Further, the logP in data set [4] is 1.4.

As for `CC(C)c1noc(N2CCN(c3ncc(OCc4ccncc4C#N)cn3)[C@H](C)C2)n1`, the Stability result in data set [1], in data set [3] and in data set [6] was “Stable” in each case. The microsomal CLint in data set [2] came to 55 µL/min/mg. Moreover, the hepatocyte CLint in data set [7] was determined as 72 µL/min/1e6 cells.

Turning to `C[C@@H]1CN(c2nc(C(F)(F)F)no2)CCN1c1ncc(OCc2ccncc2C#N)cn1`, the Stability result in data set [1], in data set [3] and in data set [6] was “Stable” throughout. Also, in [2], the microsomal CLint was 40 µL/min/mg. In addition, the logP in data set [4] is on record as 1.4. In addition, the Papp B→A in [5] amounted to 6 ×10⁻⁶ cm/s. Also, the hepatocyte CLint in data set [7] came out at 52 µL/min/1e6 cells. The Papp A→B in data set [8] worked out at 13 ×10⁻⁶ cm/s.

Regarding `CC(C)c1nnc(N2CCN(c3ncc(OCc4ccncc4C#N)cn3)[C@H](C)C2)o1`, the logD in the data set “physchem [15]” amounted to 2.6. Also, the Stability result in [1], in [3] and in data set [6] was “Stable” in each case. Besides, the fraction unbound in data set [16] turned out to be 0.087; in data set [17], 0.071; in [19], 0.131. For the same compound, the microsomal CLint in data set [2] came out at 47 µL/min/mg. This compound also had an IC50 in [18] greater than 28 µM. In [4], this compound gave a logP of -0.5. The Papp B→A in data set [5] worked out at 13 ×10⁻⁶ cm/s. The hepatocyte CLint in data set [7] was determined as 63 µL/min/1e6 cells. Also, in the data set “physchem [20]”, the solubility at 24 h was determined as 150 µM (≈ 63.1 µg/mL). The Papp A→B in data set [8] was determined as 16 ×10⁻⁶ cm/s.

`C[C@@H]1CN(c2nnc(C(F)(F)F)o2)CCN1c1ncc(OCc2ccncc2C#N)cn1` showed a logD in “physchem [15]” of 2.7. The Stability entry in data set [1], in data set [3] and in [6] was “Stable” each time. In addition, the microsomal CLint in data set [2] was 34 µL/min/mg. In addition, in [4], the logP is recorded as 0.5. The Papp B→A in data set [5] is 21 ×10⁻⁶ cm/s. For the same compound, in data set [7], the hepatocyte CLint is 53 µL/min/1e6 cells. The Papp A→B in data set [8] amounted to 18 ×10⁻⁶ cm/s.
